pIC50: −log10 of the molar value. Where two headings read alike, the source gives them in different places.
Tests used:
[1] = target: KRAS^G12D/cRAF (Homo sapiens, UniProt P01116, G12D); assay: KRAS G12D/cRAF binding test (Alphalisa); details: His-tagged KRAS G12D + GMPPNP, GST-tagged cRAF
Method: The compound was dissolved in 100% DMSO at a starting concentration of 5 mM and diluted in DMSO with a 3-fold serial dilution method for a total of 8 concentration points. 1 μL of the compound or DMSO at each concentration point was added into 99 μL of the experimental buffer to obtain 10× stock solution.
• 1) 4 μL of the working mixture solution of His-tagged KRAS^G12D and GMPPNP was added to the 384-well plate. • 2) The 10× compound stock solution or 1% DMSO was added to the 384-well plate. • 3) The plate was centrifuged at 1000 rpm for 1 minute. • 4) 4 μL of GST-tagged cRAF solution was added to the 384-well plate. • 5) The plate was centrifuged at 1000 rpm for 1 minute. • 6) The plate was incubated at room temperature for 15 minutes. • 7) 10 μL of detection working solution was added to the 384-well plate. • 8) The plate was centrifuged at 1000 rpm for 1 minute. • 9) The plate was incubated at room temperature for 60 minutes. • 10) The 384-well plate was placed into Envision and assay data was obtained.
(§1) The ratio for each compound concentration was calculated from the signal of the DMSO control group contained in each assay plate and the Alphalisa signal in each compound well. The compound concentration required for inhibitory concentration at 50% (IC50) was determined using a four-parameter logarithmic dose-response equation by testing the concentration of the compound and the value of the ratio. The endpoint value (IC50) of the reference compound was assessed in each experiment as a quality control measure. If the endpoint value is within three times the expected value, the experiment may be considered acceptable.

[2] = tested on: AGS cell; assay: Anti-proliferative 2D CTG assay, AGS cells; assay type: cell-based; details: Homo sapiens, 72 h, AGS cells, incubated 3 days, CTG, read-out: AGS cell IC50
Method: When the cell confluence was about 80%, the cells were isolated with 0.25% trypsin. Isolated cells were resuspended in 5 mL fresh cell culture medium and centrifuged for cell collection. Meanwhile, the number of cells was also calculated. The cells were then suspended in culture medium of medium concentration. The cells were placed into a 96-well plate with 1000 cells/well for AGS and 1000 cells/well for GP2D. The 96-well plate was placed in an incubator at 37° C. and incubated overnight.
1.2 Day 1 Compound Treatment From the 10 mM stock solution, with a ratio of 1:5, 10-point serial dilutions were performed. The 10× medium containing the compound was transferred into corresponding wells of the 96 wells. The final maximum compound concentration was […] and the final DMSO concentration was 0.1%. The 96-well plate was placed in a 37° C. incubator, the AGS cells were incubated for 3 days, and the GP2D cells were incubated for 4 days.
50 μL/well of detection reagent (CTG) was added to the AGS cells, and the signal was read in an Envision machine.
as §1, with “The percent inhibition (%) at” for “The ratio for”, “signal in” for “signal of”, “the HPE and ZPE” for “the DMSO”, “control wells and the fluorescence signal in the individual compound wells included” for “control group contained”, “assay plate. […]” for “assay plate and the Alphalisa signal in each compound well.”, “the inhibition percentage value.” for “the value of the ratio.”

KRAS^G12D/cRAF, sequence (P01116 1-188 isoform P01116-2 G12D): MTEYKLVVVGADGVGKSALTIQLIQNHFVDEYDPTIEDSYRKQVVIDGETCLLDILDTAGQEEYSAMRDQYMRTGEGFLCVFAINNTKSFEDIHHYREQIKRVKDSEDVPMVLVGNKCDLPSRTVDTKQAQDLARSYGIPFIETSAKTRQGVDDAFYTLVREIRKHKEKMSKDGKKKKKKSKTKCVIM

Compound: [2H]C([2H])([2H])OCC12CCC(CN(c3nc(OC[C@@]45CCCN4C[C@H](F)C5)nc4c(F)c(-c5cc(O)cc6cc(Cl)c(F)c(C#C)c56)ncc34)C1)N2 (stereo partly drawn) [Example 16, 7-chloro-5-ethynyl-6-fluoro-4-(8-fluoro-2-(((2R,7aS)-2-fluorotetrahydro-1H-pyrrolizin-7a(5H)-yl)methoxy)-4-(1-((methoxy-d3)methyl)-3,8-diazabicyclo [3.2.1]octan-3-yl)pyrido[4,3-d]pyrimidin-7-yl)naphthalen-2-ol]
- pIC50 ([1]; class symbols): < 6.30
- pIC50 ([2]; class symbols): 6.30 to 7.30

Compound: [2H]C([2H])([2H])OCC12CCC(C)(CN(c3nc(OC[C@@]45CCCN4C[C@H](F)C5)nc4c(F)c(-c5cc(O)cc6ccc(F)c(C#C)c56)ncc34)C1)N2 (stereo partly drawn) [Example 18, 5-ethynyl-6-fluoro-4-(8-fluoro-2-(((2R,7aS)-2-fluorotetrahydro-1H-pyrrolizin-7a(5H)-yl)methoxy)-4-(1-((methoxy-d3)methyl)-5-methyl-3,8-diazabicyclo [3.2.1]octan-3-yl)pyrido[4,3-d]pyrimidin-7-yl)naphthalen-2-ol]
- pIC50 ([1]; class symbols): 6.30 to 7.30
- pIC50 ([2]; class symbols): 6.30 to 7.30

Compound: [2H]C([2H])([2H])OC[C@@]12CC[C@@]([2H])(CN(c3nc(OC[C@@]45CCCN4C[C@H](F)C5)nc4c(F)c(-c5cc(O)cc6ccc(F)c(C#C)c56)ncc34)C1)N2 [Example 48, 5-ethynyl-6-fluoro-4-(8-fluoro-2-(((2R,7aS)-2-fluorotetrahydro-1H-pyrrolizin-7a(5H)-yl)methoxy)-4-((1R,5S)-1-((methoxy-d3)methyl)-3,8-diazabicyclo[3.2.1]octan-3-yl-5-d)pyrido[4,3-d]pyrimidin-7-yl)naphthalen-2-ol]
- pIC50 ([1]; class symbols): < 6.30
- pIC50 ([2]; class symbols): > 7.30

Compound: [2H]C([2H])([2H])C12CCC(CN(c3nc(OC[C@@]45CCCN4C[C@H](F)C5)nc4c(F)c(-c5cc(O)cc6ccc(F)c(C#C)c56)nc(C)c34)C1)N2 (stereo partly drawn) [Example 40, 5-ethynyl-6-fluoro-4-(8-fluoro-2-(((2R,7aS)-2-fluorotetrahydro-1H-pyrrolizin-7a(5H)-yl)methoxy)-5-methyl-4-(1-(methyl-d3)-3,8-diazabicyclo[3.2.1]octan-3-yl)pyrido[4,3-d]pyrimidin-7-yl)naphthalen-2-ol]
- pIC50 ([1]; class symbols): > 7.30
- pIC50 ([2]; class symbols): > 7.30

Compound: C#Cc1c(F)ccc2cc(O)cc(-c3ncc4c(N5CC6CCC(CN(C)C)(C5)N6)nc(OC[C@@]56CCCN5C[C@H](F)C6)nc4c3F)c12 (stereo partly drawn) [Example 24, 4-(4-(1-((dimethylamino)methyl)-3,8-diazabicyclo[3.2.1]octan-3-yl)-8-fluoro-2-(((2R,7aS)-2-fluorotetrahydro-1H-pyrrolizin-7a(5H)-yl)methoxy)pyrido[4,3-d]pyrimidin-7-yl)-5-ethynyl-6-fluoronaphthalen-2-ol]
- pIC50 ([1]; class symbols): 6.30 to 7.30
- pIC50 ([2]; class symbols): > 7.30

Compound: C#Cc1c(F)ccc2cc(O)cc(-c3ncc4c(N5CC6CCC(/C=C\F)(C5)N6)nc(OC[C@@]56CCCN5C[C@H](F)C6)nc4c3F)c12 (stereo partly drawn) [Example 27, 5-ethynyl-6-fluoro-4-(8-fluoro-2-(((2R,7aS)-2-fluorotetrahydro-1H-pyrrolizin-7a(5H)-yl)methoxy)-4-(1-((Z)-2-fluorovinyl)-3,8-diazabicyclo[3.2.1]octan-3-yl)pyrido[4,3-d]pyrimidin-7-yl) naphthalen-2-ol]
- pIC50 ([1]; numeric values): 7.27
- pIC50 ([2]; numeric values): 7.96

Compound: [2H]C([2H])([2H])C12CCC(CN(c3nc(OC[C@@]45CCCN4C[C@H](F)C5)nc4c(F)c(-c5cc(O)cc6ccc(F)c(C#C)c56)ncc34)C1)N2 (stereo partly drawn) [Example 7, 5-ethynyl-6-fluoro-4-(8-fluoro-2-(((2R,7aS)-2-fluorotetrahydro-1H-pyrrolizin-7a(5H)-yl)methoxy)-4-(1-(methyl-d3)-3,8-diazabicyclo[3.2.1]octan-3-yl)pyrido [4,3-d]pyrimidin-7-yl) naphthalen-2-ol]
- pIC50 ([1]; numeric values): 8.37
- pIC50 ([2]; numeric values): 7.55

Compound: [2H]C([2H])([2H])OCC12CCC(CN(c3nc(OC[C@@]45CCCN4C[C@H](F)C5)nc4c(F)c(-c5cc(O)cc6ccc(F)c(C#C)c56)nc(C)c34)C1)N2 (stereo partly drawn) [Example 39, 5-ethynyl-6-fluoro-4-(8-fluoro-2-(((2R,7aS)-2-fluorotetrahydro-1H-pyrrolizin-7a(5H)-yl)methoxy)-4-(1-((methoxy-d3)methyl)-3,8-diazabicyclo[3.2.1]octan-3-yl)-5-methylpyrido[4,3-d]pyrimidin-7-yl)naphthalen-2-ol]
- pIC50 ([1]; class symbols): 6.30 to 7.30
- pIC50 ([2]; class symbols): > 7.30

Compound: [2H]C([2H])([2H])OC[C@]12CC[C@]([2H])(CN(c3nc(OC[C@@]45CCCN4C[C@H](F)C5)nc4c(F)c(-c5cc(O)cc6ccc(F)c(C#C)c56)ncc34)C1)N2 [Example 47, 5-ethynyl-6-fluoro-4-(8-fluoro-2-(((2R,7aS)-2-fluorotetrahydro-1H-pyrrolizin-7a(5H)-yl)methoxy)-4-((1S,5R)-1-((methoxy-d3)methyl)-3,8-diazabicyclo[3.2.1]octan-3-yl-5-d)pyrido[4,3-d]pyrimidin-7-yl)naphthalen-2-ol]
- pIC50 ([1]; class symbols): 6.30 to 7.30
- pIC50 ([2]; class symbols): 6.30 to 7.30

Compound: C#Cc1c(F)ccc2cc(O)cc(-c3ncc4c(N5CC6(C)CCC(C)(C5)N6)nc(OC[C@@]56CCCN5C[C@H](F)C6)nc4c3F)c12 [Example 20, 4-(4-(1,5-dimethyl-3,8-diazabicyclo[3.2.1]octan-3-yl)-8-fluoro-2-(((2R,7aS)-2-fluorotetrahydro-1H-pyrrolizin-7a(5H)-yl)methoxy)pyrido[4,3-d]pyrimidin-7-yl)-5-ethynyl-6-fluoronaphthalen-2-ol]
- pIC50 ([1]; class symbols): 6.30 to 7.30
- pIC50 ([2]; class symbols): > 7.30

Compound: C#Cc1c(F)ccc2cc(O)cc(-c3ncc4c(N5CC6CCC(CSC)(C5)N6)nc(OC[C@@]56CCCN5C[C@H](F)C6)nc4c3F)c12 (stereo partly drawn) [Example 10, 5-ethynyl-6-fluoro-4-(8-fluoro-2-(((2R,7aS)-2-fluorotetrahydro-1H-pyrrolizin-7a(5H)-yl)methoxy)-4-(1-((methylthio)methyl)-3,8-diazabicyclo [3.2.1]octan-3-yl)pyrido[4,3-d]pyrimidin-7-yl)naphthalen-2-ol]
- pIC50 ([1]; class symbols): < 6.30
- pIC50 ([2]; class symbols): 6.30 to 7.30

Compound: C#Cc1c(F)ccc2cc(O)cc(-c3ncc4c(N5CC6CCC(CC(F)F)(C5)N6)nc(OC[C@@]56CCCN5C[C@H](F)C6)nc4c3F)c12 (stereo partly drawn) [Example 21, 4-(4-(1-(2,2-difluoroethyl)-3,8-diazabicyclo[3.2.1]octan-3-yl)-8-fluoro-2-(((2R,7aS)-2-fluorotetrahydro-1H-pyrrolizin-7a(5H)-yl)methoxy)pyrido[4,3-d]pyrimidin-7-yl)-5-ethynyl-6-fluoronaphthalen-2-ol]
- pIC50 ([1]; class symbols): 6.30 to 7.30
- pIC50 ([2]; class symbols): > 7.30

Compound: C#Cc1c(F)ccc2cc(O)cc(-c3ncc4c(N5CC6CCC(CC(=O)OC)(C5)N6)nc(OC[C@@]56CCCN5C[C@H](F)C6)nc4c3F)c12 (stereo partly drawn) [Example 34, Methyl 2-(3-(7-(8-ethynyl-7-fluoro-3-hydroxynaphthalen-1-yl)-8-fluoro-2-(((2R,7aS)-2-fluorohexahydro-1H-pyrrolizin-7a-yl)methoxy)pyrido[4,3-d]pyrimidin-4-yl)-3,8-diazabicyclo[3.2.1]octan-1-yl)acetate]
- pIC50 ([1]; class symbols): > 7.30
- pIC50 ([2]; class symbols): 6.30 to 7.30

Compound: [2H]C([2H])([2H])OCC12CCC(CN(c3nc(OC[C@@]45CCCN4C[C@H](F)C5)nc4c(F)c(-c5cc(O)cc6ccc(F)c(C#C)c56)nc(OC)c34)C1)N2 (stereo partly drawn) [Example 36, 5-ethynyl-6-fluoro-4-(8-fluoro-2-(((2R,7aS)-2-fluorotetrahydro-1H-pyrrolizin-7a(5H)-yl)methoxy)-5-methoxy-4-(1-((methoxy-d3)methyl)-3,8-diazabicyclo[3.2.1]octan-3-yl)pyrido[4,3-d]pyrimidin-7-yl)naphthalen-2-ol]
- pIC50 ([1]; class symbols): 6.30 to 7.30
- pIC50 ([2]; class symbols): 6.30 to 7.30
